In patent US20080113038A1, “Composition For Promoting Osteogenesis And Increasing Bone Mineral Content” (priority 2004, published 2008):

What was measured:
[1] = test system: diaphysis and metaphysis tissues of rat femur; test: Calcium level in bone tissues in a bone tissue culture system; conditions: for Change of calcium levels in bone tissues (in words) / Calcium level in bone tissues, diaphysis part / Calcium level in bone tissues, metaphysis part / Change of calcium levels in bone tissues compared to the control group (in words): 48 h culture, β-cryptoxanthin 10^−9 M; for Calcium level in bone tissues, diaphysis part / Calcium level in bone tissues, metaphysis part: mean ± SD, 5 rats; for Change of calcium level in bone tissues (in words): higher concentration of 10^−5 M; for Change of calcium levels in bone tissues compared to the control group (in words): both diaphysis and metaphysis
Experimental: Rats (Wistar male rats; 4 weeks old, body weight 85-90 g; purchased from Japan SLC Ltd., and fed with solid Oriental yeast (MF)) were sacrificed under mild ether anesthesia. Muscle tissues around femur were removed completely, divided into diaphysis (cortical bone) and metaphysis (cancellous bone) tissues of femur, and then the bone marrow cells were washed and removed in a cold 0.25 M sucrose solution. The bone tissue pieces were cultured in a Dulbecco's modified Eagle's culture medium (serum-free, containing 50 units/ml penicillin and 50 μg/ml spretomycin, supplemented with 45 mg/ml glucose), in an CO2 incubator aseptically for 48 hours at 37° C. […] Bone tissues were put into a culture dish (with a diameter of 35 mm, made of plastic) added with 2.0 ml of the above mentioned culture solution, and cultured. After being cultured, bone tissues were washed well in a cold 0.25 M sucrose solution, dried at 100° C. for 5 hours, and weighed. Dried bone tissues were put into a test tube (15 ml), to which 2.0 ml of concentrated nitric acid was added, and the resultant was heated and degraded at 100° C. for 16 hours. After degradation, solution amount was measured. A specific amount thereof was diluted with purified distilled water, and calcium was determined by colorimetry (kit for measuring calcium, Wako Pure Chemical Industries). Calcium levels in bone tissues are indicated as mg per 1 g of dried weight of cultured bone tissues. In the above experiment, bone tissues obtained from one rat were put in one culture dish, and 5 culture dishes were used for 5 rats. 5 dishes were used for each of the control, β-cryptoxanthin alone group, zinc alone group, and the β-cryptoxanthin and zinc-combined group. […] A critical value of less than 5% was determined as having a significant difference.
In order to investigate the effect on calcium levels in bone tissues when β-cryptoxanthin and zinc, or genistein and menaquinone-7 are supplied in the bone tissue culture system, femur diaphysis and metaphysis tissues were cultured for 48 hours in a culture solution, in the same manner as in Example 1, and the calcium level in bone tissues was measured, compared and evaluated.

[2] = test system: alkaline phosphatase in bone tissues (femur diaphysis and metaphysis); test: Alkaline phosphatase activity in bone tissues by oral administration; format: in vivo, rat; conditions: rats, β-cryptoxanthin 5 μg/100 g body weight, zinc 0.1 mg/100 g body weight; for Change of alkaline phosphatase activity in diaphysis and metaphysis tissues (in words): oral 7 days; for Alkaline phosphatase activity in bone tissues, diaphysis part / Alkaline phosphatase activity in bone tissues, metaphysis part: oral once a day for 7 days
Experimental: (§1) The expression level of alkaline phosphatase, which is the most important enzyme for promoting bone calcification, was examined. […] The resultant liquid was centrifuged. The supernatant, as an enzyme solution, was determined by a method of Walter and Schutt (in Method of Enzymatic Analysis, Vol. 1-2, p. 856, Academic Press, New York, 1965). Namely, this method was carried out as follows: p-nitrophenylphosphoric acid was used as a substrate; 0.05 ml of the enzyme solution was added to 2 ml of diethanolamine buffer (pH 9.8). After the incubation at 37° C. for 30 minutes, 10 ml of 0.05 N NaOH was added to the mixture. The absorbance (405 nm) was determined with a spectrophotometer to examine bone alkaline phosphatase activity of a therapeutic agent for bones and of a compound known to be effective for bones.
(§2) 24 hours after the final administration, femur was extracted, and the change in calcium levels in diaphysis and metaphysis tissues was examined with the method of Example 1.
The change of alkaline phosphatase activity in diaphysis and metaphysis tissues which were extracted in the same manner as in Example 5 was examined with the method of Example 3.

[3] = test system: alkaline phosphatase in bone tissues (femur diaphysis and metaphysis); test: Alkaline phosphatase activity in bone tissues in a bone tissue culture system; format: cell-based, rat; conditions: 48 h culture, β-cryptoxanthin 10^−9 M, zinc 10^−6 M; for Alkaline phosphatase activity in bone tissues, diaphysis part / Alkaline phosphatase activity in bone tissues, metaphysis part: mean ± SD, 5 rats; for Change of alkaline phosphatase activity in bone tissues compared to the control group (in words): diaphysis and metaphysis
Experimental: (§3) After degradation, solution amount was measured.
as §1, with “mixture.” for “mixture. The absorbance (405 nm) was determined with a spectrophotometer to examine bone alkaline phosphatase activity of a therapeutic agent for bones and of a compound known to be effective for bones.”

[4] = test system: femur diaphysis and metaphysis tissues; test: Calcium level in bone tissues by oral administration; format: in vivo, rat; conditions: rats, β-cryptoxanthin 5 μg/100 g body weight, zinc 0.1 mg/100 g body weight; for Change of calcium level in diaphysis (in words) / Change of calcium level in metaphysis (in words): oral 7 days; for Calcium level in bone tissues, diaphysis part / Calcium level in bone tissues, metaphysis part: oral once a day for 7 days, femur 24 h after final administration
Experimental: as §3, §2

bone protein synthesis = conditions: non-patent document 4; cited from earlier work
[5] = test system: femur diaphysis and metaphysis tissues; test: DNA level in bone tissues by oral administration; format: in vivo, rat; conditions: rats, β-cryptoxanthin 5 μg/100 g body weight, zinc 0.1 mg/100 g body weight; for Change of DNA level in diaphysis (in words) / Change of DNA level in metaphysis tissues (in words): oral 7 days; for DNA level in bone tissues, diaphysis part / DNA level in bone tissues, metaphysis part: oral once a day for 7 days
Experimental: (§4) DNA level was determined as an index of cell count in bone tissues. […] After osmosis at 4° C. for 24 hours, the liquid mixture was centrifuged. The supernatant was taken as a sample and determined by a method of Ceriotti et al. (J. Biol. Chem., 241; 34-77, 1951). Namely, 1 ml of concentrated hydrochloric acid and 1 ml of 0.04% indole solution were added to 2 ml of the sample and then the resultant mixture was heated to 100° C. in boiling water. After quenching followed by an extraction with 4 ml of chloroform, the chloroform layer was taken to determine bone DNA level with a spectrophotometer (490 nm).
as §2
The change of DNA level in diaphysis and metaphysis tissues which were extracted in the same manner as in Example 5 was examined with the method of Example 4.

[6] = test system: diaphysis and metaphysis tissues of rat femur; test: DNA level in bone tissues in a bone tissue culture system; format: cell-based; conditions: 48 h culture, β-cryptoxanthin 10^−9 M, zinc 10^−6 M; for DNA level in bone tissues, diaphysis part / DNA level in bone tissues, metaphysis part: mean ± SD, 5 rats; for Change of DNA level in bone tissues compared to the control group (in words): diaphysis and metaphysis
Experimental: as §3, §4

[7] = test system: diaphysis and metaphysis tissues of a femur; conditions: cited from earlier work
[8] = Example 2, zinc, genistein, menaquinone-7 each 10^−6 M

O=c1c(-c2ccc(O)cc2)coc2cc(O)cc(O)c12 [genistein, reference compound]
Change of calcium levels in bone tissues (in words) [1, 8]: did not increase significantly
Calcium level in bone tissues, diaphysis part [1, 8]: 211.0 ± 7.93 mg/g bone dry weight
Calcium level in bone tissues, metaphysis part [1, 8]: 189.3 ± 6.40 mg/g bone dry weight
Change of calcium level in bone tissues (in words) [1]: increasing significantly

CC(C)=CCC/C(C)=C/CC/C(C)=C/CC/C(C)=C/CC/C(C)=C/CC/C(C)=C/CC/C(C)=C/CC1=C(C)C(=O)c2ccccc2C1=O [menaquinone-7, reference compound]
Change of calcium levels in bone tissues (in words) [1, 8]: did not increase significantly
Calcium level in bone tissues, diaphysis part [1, 8]: 219.8 ± 4.20 mg/g bone dry weight
Calcium level in bone tissues, metaphysis part [1, 8]: 184.9 ± 2.70 mg/g bone dry weight
Change of calcium level in bone tissues (in words) [1]: increasing significantly

O=S(=O)([O-])[O-].[Zn+2] [zinc, zinc sulfate]
Change of alkaline phosphatase activity in diaphysis and metaphysis tissues (in words) [2]: did not induce a significant change
Alkaline phosphatase activity in bone tissues, diaphysis part [2]: 1.725 ± 0.038 μmol/min/mg protein
Alkaline phosphatase activity in bone tissues, metaphysis part [2]: 1.170 ± 0.033 μmol/min/mg protein
Alkaline phosphatase activity in bone tissues, diaphysis part [3]: 1.019 ± 0.061 μmol/min/mg protein
Alkaline phosphatase activity in bone tissues, metaphysis part [3]: 1.190 ± 0.079 μmol/min/mg protein
Change of alkaline phosphatase activity in bone tissues compared to the control group (in words) [3]: did not change significantly
Change of calcium level in diaphysis (in words) [4]: did not induce a significant change
Change of calcium level in metaphysis (in words) [4]: did not induce a significant change
Calcium level in bone tissues, diaphysis part [4]: 227.9 ± 4.3 mg/g dry mass
Calcium level in bone tissues, metaphysis part [4]: 178.6 ± 4.0 mg/g dry mass
Concentration at which synthesis of bone protein is promoted (bone protein synthesis): ≥ 10^−4 M
Change of DNA level in diaphysis (in words) [5]: did not induce a significant change
Change of DNA level in metaphysis tissues (in words) [5]: did not induce a significant change
DNA level in bone tissues, diaphysis part [5]: 1.805 ± 0.154 mg/g bone wet weight
DNA level in bone tissues, metaphysis part [5]: 3.278 ± 0.103 mg/g bone wet weight
DNA level in bone tissues, diaphysis part [6]: 1.471 ± 0.052 mg/g bone wet weight
DNA level in bone tissues, metaphysis part [6]: 3.025 ± 0.271 mg/g bone wet weight
Change of DNA level in bone tissues compared to the control group (in words) [6]: did not change significantly
Calcium level in bone tissues, diaphysis part ([1]; Example 1, zinc 10^−6 M): 215.5 ± 2.01 mg/g bone dry weight
Calcium level in bone tissues, metaphysis part ([1]; Example 1, zinc 10^−6 M): 185.6 ± 1.56 mg/g bone dry weight
Change of calcium levels in bone tissues compared to the control group (in words) ([1]; Example 1, zinc 10^−6 M): did not change significantly
Change of calcium levels in bone tissues (in words) [1, 8]: did not increase significantly
Calcium level in bone tissues, diaphysis part [1, 8]: 224.3 ± 2.90 mg/g bone dry weight
Calcium level in bone tissues, metaphysis part [1, 8]: 190.2 ± 2.53 mg/g bone dry weight

CC1=C(/C=C/C(C)=C/C=C/C(C)=C/C=C/C=C(C)/C=C/C=C(C)/C=C/C2=C(C)C[C@@H](O)CC2(C)C)C(C)(C)CCC1 [β-cryptoxanthin]
Change of alkaline phosphatase activity in diaphysis and metaphysis tissues (in words) [2]: did not induce a significant change
Alkaline phosphatase activity in bone tissues, diaphysis part [2]: 1.703 ± 0.056 μmol/min/mg protein
Alkaline phosphatase activity in bone tissues, metaphysis part [2]: 1.159 ± 0.048 μmol/min/mg protein
Alkaline phosphatase activity in bone tissues, diaphysis part [3]: 1.010 ± 0.078 μmol/min/mg protein
Alkaline phosphatase activity in bone tissues, metaphysis part [3]: 1.122 ± 0.078 μmol/min/mg protein
Change of alkaline phosphatase activity in bone tissues compared to the control group (in words) [3]: did not change significantly
Change of calcium level in diaphysis (in words) [4]: did not induce a significant change
Change of calcium level in metaphysis (in words) [4]: increased significantly
Calcium level in bone tissues, diaphysis part [4]: 233.6 ± 6.8 mg/g dry mass
Calcium level in bone tissues, metaphysis part [4]: 190.1 ± 3.4 mg/g dry mass
Change of DNA level in diaphysis (in words) [5]: did not induce a significant change
Change of DNA level in metaphysis tissues (in words) [5]: significant increase
DNA level in bone tissues, diaphysis part [5]: 1.980 ± 0.251 mg/g bone wet weight
DNA level in bone tissues, metaphysis part [5]: 4.102 ± 0.055 mg/g bone wet weight
DNA level in bone tissues, diaphysis part [6]: 1.358 ± 0.089 mg/g bone wet weight
DNA level in bone tissues, metaphysis part [6]: 3.141 ± 0.078 mg/g bone wet weight
Change of DNA level in bone tissues compared to the control group (in words) [6]: did not change significantly
Calcium level in bone tissues, diaphysis part ([1]; Example 1, zinc 10^−6 M): 221.5 ± 3.95 mg/g bone dry weight
Calcium level in bone tissues, metaphysis part ([1]; Example 1, zinc 10^−6 M): 189.5 ± 2.39 mg/g bone dry weight
Change of calcium levels in bone tissues compared to the control group (in words) ([1]; Example 1, zinc 10^−6 M): did not change significantly
Change of calcium levels in bone tissues (in words) [1, 8]: did not increase significantly
Calcium level in bone tissues, diaphysis part [1, 8]: 221.5 ± 3.45 mg/g bone dry weight
Calcium level in bone tissues, metaphysis part [1, 8]: 189.5 ± 3.44 mg/g bone dry weight
Effective concentration for promoting osteogenesis and increasing bone calcium level ([7]; 48-hour culture system of a bone tissue culture system, earlier report of the inventors): 10^−8-10^−6 M
Concentration at which osteogenesis is promoted and bone calcium increased ([7]; 48 h culture in a bone tissue culture system, patent document 10, non-patent document 2): 10^−1 to 10^−6
Calcium level, bone calcification accelerating enzyme and DNA level in bone tissues (in words) ([7]; femur diaphysis and metaphysis tissues cultured in medium containing β-cryptoxanthin, earlier report of the inventors): significant increase
